Measurements published in patent US20240148691A1, “Treatment of Hypertension-Related and Vascular Diseases” (The Medical College of Wisconsin, Inc., priority 2021, published 2024).
“Also recorded” adds a separate entry of the source.

Assays:
[1] = Blood pressure and body weight during long-term treatment of hypertensive rats; type: in vivo, rat
Method: To assess whether treatment with SHetA2 would reduce the systolic blood pressure in hypertensive rats, animals were treated for 18 weeks with either vehicle control or SHetA2.
(§1) SS rats were weaned at 3 weeks of age and transferred to 1% salt diet for additional 3 weeks before treatment. At 6 weeks of age, rats were either given vehicle control or SHetA2 at 60 mg/kg by oral gavage. Oral gavage was performed 3 times weekly every other day for a period of 18 weeks. […] Urine was collected from rats housed in metabolic cages for 1-2 hours, approximately 24 hours after last treatment after 6, 12 and 18 weeks of treatment. […] Vascular reactivity of renal afferent arterioles was measured using the juxtamedullary nephron technique approximately 24 hours after final treatment (18 weeks) (FIG. 7).

[2] = test system: diabetic nephropathy; assay: Urinary protein excretion in diabetic animals; type: in vivo, rat
Excerpt: (§2) The inventors hypothesized that SHetA2 would be effective in preventing and treating diabetic nephropathy. Therefore, the inventors treated rats with diabetes induced by streptozotocin (STZ) with SHetA2. […] (FIGS. 20-21).

[3] = test system: renal afferent arterioles; assay: Renal afferent arteriole microvascular responses (juxtamedullary nephron technique) after chronic treatment of hypertensive SS rats; type: in vivo, rat
Method: (§3) Microvascular responses of renal afferent preglomerular arterioles to perfused pressure. Juxtamedullary nephron vasculature was isolated, and an afferent arteriole was monitored continuously by videomicroscopy. SS/BN2 refers to BN chromosome replacement into SS background. Thus, SS/BN2 are not expected to be salt-sensitive and represent a control for the SS strain.
Vascular reactivity of renal afferent arterioles was measured using the juxtamedullary nephron technique approximately 24 hours after final treatment (18 weeks) (FIG. 9). Remarkably, SHetA2 restored renal microvascular responses in hypertensive rats, as detected by response of afferent arterioles either to increasing perfusion pressure or to ATP, known mediator of afferent arteriolar autoregulatory responses (FIG. 8).
as §1

[4] = test system: afferent arterioles; assay: Renal microvascular responses in streptozotocin-induced diabetic rats; type: in vivo, rat; details: for renal microvascular responses: diabetic animals
Excerpt: as §2

[5] = test system: hypertension-induced nephropathy; assay: Urinary protein excretion in salt-sensitive hypertensive rats; type: in vivo, rat
Method: as §1
Hypertension-induced nephropathy causes excessive protein excretion in the urine.

[6] = test system: renal afferent preglomerular arterioles; assay: Renal afferent preglomerular arteriole microvascular responses, SHetA2 added in vitro; design: species or system rat
Excerpt: as §3
Microvascular reactivity of renal blood vessels is reduced in two major causes of end stage renal disease: hypertension-induced nephropathy (HN) and diabetic nephropathy. One of the highlights of vascular dysfunction in HN is the loss of autoregulation of blood resistance vessels. Using rat model of salt-sensitive (SS) HN we have previously shown that overexpression of adaptor protein p66Shc is implicated in the loss of microvascular reactivity during the progression of HN (FIGS. 3, 5). In HN p66Shc is over-expressed in vascular smooth muscle cells of the walls of renal resistance arteries, including afferent arteriole (FIG. 4). p66Shc knockout restores the ability of afferent arteriole to contract in response to increased perfusion pressure and ATP (FIG. 5) and mitigates glomerular damage in SS rats on 1% salt diet. In this study, we tested ability of a flexible heteroarotinoid called Sulfur Heteroarotinoid A2 (SHetA2, pronounced Ess-Het-Aye-Two), known to inhibit p66Shc action, to prevent development and restore renal microvascular responses in hypertensive rats when added after the development of hypertension-induced nephropathy. […] Remarkably, SHetA2 prevented loss of microvascular reactivity and restored renal microvascular responses in hypertensive rats, as detected by response of afferent arterioles either to increasing perfusion pressure or to ATP, known mediator of afferent arteriolar autoregulatory responses (FIG. 6).

[7] = cited from earlier work
[8] = test system: KATP channels; assay: Glibenclamide-induced arteriole constriction in diabetic rats; design: species or system rat
Excerpt: The inventors hypothesized that SHetA2 acts by inhibiting p66Shc-induced activation of KATP channels in diabetic animals. Therefore, the inventors treated control and SHetA2 treated arterioles with increasing concentrations of glibenclamide, antidiabetic drug which binds and inhibits the ATP-sensitive potassium channel's KATP inhibitory subunit which causes increasing of intracellular Ca^2+ concentrations leading to arteriole constriction.

**Q.** With `CC1(C)CC(C)(C)c2cc(NC(=S)Nc3ccc([N+](=O)[O-])cc3)ccc2S1` [SHetA2, Sulfur Heteroarotinoid A2] as the compound, how does the “progression of hypertension / increase of blood pressure” value ([1]; 1% salt diet, long-term treatment) read?
**A.** did not prevent; also recorded: lack of effect

**Q.** And the systolic blood pressure ([1]; hypertensive rats, 18 weeks treatment vs vehicle)?
**A.** did not significantly reduce

**Q.** What about the body weight ([1]; long-term treatment) of the same compound?
**A.** lack of effect

**Q.** What about the urinary protein excretion [2] of the same compound?
**A.** reduces or prevents

**Q.** And the “renal microvascular responses of afferent arterioles to increasing perfusion pressure or ATP” value ([3]; hypertensive SS rats, 1% salt diet, SHetA2 60 mg/kg oral gavage 3 times weekly, 18 weeks, about 24 hours after final treatment, 60 mg/kg)?
**A.** restored

**Q.** And the renal damage ([3]; hypertensive rats)?
**A.** mitigates

**Q.** And the “vessel diameter after chronic administration of SHetA2” value ([3]; male and female rats (FIG. 17))?
**A.** decrease

**Q.** And the “development of microvascular damage” value ([4]; STZ diabetic rats)?
**A.** successfully prevented

**Q.** What about the renal microvascular responses ([4]; acute treatment) of the same compound?
**A.** increased

**Q.** What about the renal microvascular responses ([4]; chronic treatment, oral gavage every other day) of the same compound?
**A.** increased

**Q.** What about the “signs of diabetic nephropathy (dilation of afferent arterioles)” value ([4]; p66ShcKO rats treated with STZ) of the same compound?
**A.** absence of effect

**Q.** And the “signs of diabetic nephropathy (dilation of afferent arterioles)” value ([4]; rats treated with streptozotocin (STZ))?
**A.** reduces or prevents

**Q.** What about the urinary protein excretion ([5]; S36A salt-sensitive animals) of the same compound?
**A.** reduces or prevents

**Q.** And the urinary protein excretion ([5]; wild type SS hypertensive rats, SHetA2 60 mg/kg oral gavage, vs control-treated rats, 60 mg/kg)?
**A.** statistically significant decrease; also recorded: significantly reduces

**Q.** What about the urinary protein excretion ([5]; wild type SS hypertensive rats, SHetA2 60 mg/kg oral gavage, vs control-treated rats, listed as SHet2A) of the same compound?
**A.** reduces or prevents

**Q.** And the “vessel diameter in response to SHetA2 treatment” value ([6]; dose dependence (FIG. 14))?
**A.** dose-dependent decrease

**Q.** What about the “renal microvascular responses in renal afferent preglomerular arterioles” value ([6]; in vitro, hypertensive rats (FIG. 6)) of the same compound?
**A.** partially restored

**Q.** What about the renal microvascular response ([6]; salt-sensitive rats with hypertension, dose dependence (FIG. 14)) of the same compound?
**A.** dose-dependent increase

**Q.** What about the “effect on heart function” value ([7]; animal models, after months of treatment) of the same compound?
**A.** does not have any detectable effect

**Q.** And the “teratogenicity (birth defects)” value ([7]; animal models)?
**A.** does not cause

**Q.** What about the toxicity ([7]; oral, doses 25-fold above the doses used in the rat hypertensive model) of the same compound?
**A.** no toxicity

**Q.** With `COc1ccc(Cl)cc1C(=O)NCCc1ccc(S(=O)(=O)NC(=O)NC2CCCCC2)cc1` [glibenclamide] as the compound, how does the arteriole constriction ([8]; control arterioles, increasing glibenclamide concentrations) read?
**A.** caused constriction

**Q.** And the “signs of diabetic nephropathy” value ([8]; diabetic p66ShcKO rats)?
**A.** not diabetic p66ShcKO rats

**Q.** What about the “signs of diabetic nephropathy” value ([8]; diabetic rats) of the same compound?
**A.** effective in attenuating

**Q.** And the “glibenclamide effect / arteriole constriction” value ([8]; diabetic rats / arterioles treated with SHetA2, increasing glibenclamide concentrations)?
**A.** not in SHetA2 treated arterioles; also recorded: lack of glibenclamide effect
